Measured values from publication PMC8584424, “Synthesis of Novel 2-Thiouracil-5-Sulfonamide Derivatives as Potent Inducers of Cell Cycle Arrest and CDK2A Inhibition Supported by Molecular Docking” (International Journal of Molecular Sciences, 2021).

How the values were obtained:
[1] = tested on: HT-29 (colon) cancer cells; assay: In vitro cytotoxicity assessment (MTT), HT-29; format: cell-based, human; conditions: for IC50: Homo sapiens, HT-29, 48 h, MTT, mean of three experiments ± SD, NA: not active
Description: (§1) Four cancer cell lines were used in this study viz ovarian (A-2780), colon (HT-29), breast (MCF-7), and liver (HepG2) cancer cells. They were provided by the National Institute of Cancer, Cairo University (Cairo, Egypt). The selection of those cancer cells was encouraged by the stated anticancer activity of a number 5-Fluorouracil hybrids against the mentioned cancer cells and based on the reported cytotoxic activity of a large range of bioactive cores containing sulfonamide moiety.
(§2) Cells were seeded in 96 well plates at a density of 2 × 10^4 and incubated to allow the attachment for 24 h. Then the cells were treated at different concentrations (2.5–10 μM) with 5-FU as a positive control or the synthesized compounds for 48h. 0.1% DMSO was used as a negative control. Afterward, cells were washed using PBS and the viability of cells was evaluated utilizing in vitro toxicology assay kit, MTT Based (Stock No. TOX-1, Sigma-Aldrich, Saint Louis, Missouri, USA), per the manufacturer’s instructions. The plates were read at 570 nm. IC50 was calculated using a sigmoidal dose-response curve (GraphPad Prism version 5 for Windows (GraphPad Inc., USA)). Data are presented as the mean of the three individual experiments. The degree of selectivity of the active target compounds relative to WI38 normal cell lines is expressed as previously described. Selectivity index (SI) = IC50 of a pure compound in a normal cell line/IC50 of the same pure compound in a cancerous cell line.

[2] = tested on: MCF-7 (breast) cancer cells; assay: In vitro cytotoxicity assessment (MTT), MCF-7; format: cell-based, human; conditions: for IC50: Homo sapiens, MCF7, 48 h, MTT, mean of three experiments ± SD, NA: not active
Description: as §1, §2

[3] = tested on: A-2780, HT-29, MCF-7, and HepG2 cancer cell lines; assay: Cytotoxic screening, statements for the whole panel of four cancer cell lines; format: cell-based, human; conditions: A-2780, HT-29, MCF-7, HepG2
Description: as §1, §2

[4] = tested on: HepG2 (liver) cancer cells; assay: In vitro cytotoxicity assessment (MTT), HepG2; format: cell-based, human; conditions: for IC50: Homo sapiens, HepG2, 48 h, MTT, mean of three experiments ± SD, NA: not active
Description: as §1, §2

[5] = tested on: A-2780 (ovarian) cancer cells; assay: In vitro cytotoxicity assessment (MTT), A-2780; format: cell-based, human; conditions: for IC50: Homo sapiens, A2780, 48 h, MTT, mean of three experiments ± SD, NA: not active
Description: as §1, §2

HepG2 cells [6] = assay: Cell cycle analysis (PI flow cytometry), HepG2; format: cell-based, human; conditions: IC50 of 6e, 48 h
Description: (§3) To evaluate cancer cells distribution through different cell cycle stages, the DNA content of propidium iodide-stained nuclei was assessed by flow cytometry as depicted earlier. […] Then, the cells were washed twice with ice-cold phosphate-buffered saline (PBS) and gathered by centrifugation. The cell pellets were mixed with 75% ethanol (−20 °C). Afterward, cells were stained with the propidium iodide flow cytometry kit (ab139418, Abcam, Cambridge, MA, USA), according to the manufacturer’s instructions. Cell cycle distribution was established by FACS Calibur flow cytometer (BD Biosciences, San Jose, CA, USA). Cell cycle distribution was measured using […] software (Becton Dickinson Immunocytometry Systems, San Jose, CA, USA).

HT-29 cells [7] = assay: Annexin V-FITC/PI apoptosis assay, HT-29; format: cell-based, human; conditions: 6e at its IC50, 48 h
Description: (§4) For the apoptosis assay, the BioVision annexin V-FITC apoptosis detection kit (Cat No.: K101; BioVision, Inc., Milpitas, CA, USA) was used, per the manufacturer’s instructions. […] The cells were resuspended in 500 μL of Annexin V–binding buffer, followed by the addition of 5μL of Annexin V–FITC, then incubated in the dark for 10 min at room temperature. Analysis was performed using a FACS Calibur flow cytometer (BD Biosciences, San Jose, CA, USA), using […] software (Becton Dickinson Immunocytometry Systems, San Jose, CA, USA).

A-2780 cells [8] = assay: Annexin V-FITC/PI apoptosis assay, A-2780; format: cell-based, human; conditions: 6e at its IC50, 48 h
Description: as §4

HepG2 cells [9] = assay: Annexin V-FITC/PI apoptosis assay, HepG2; format: cell-based, human; conditions: 6e at its IC50, 48 h
Description: as §4

MCF-7 cells [10] = assay: Annexin V-FITC/PI apoptosis assay, MCF-7; format: cell-based, human; conditions: 6e at its IC50, 48 h
Description: as §4

A-2780 cells [11] = assay: Cell cycle analysis (PI flow cytometry), A-2780; format: cell-based, human; conditions: IC50 of 6e, 48 h
Description: as §3

HT-29 cells [12] = assay: Cell cycle analysis (PI flow cytometry), HT-29; format: cell-based, human; conditions: IC50 of 6e, 48 h
Description: as §3

CDK2/CyclinA2 = biological target: T1, CDK2/CyclinA2 (Homo sapiens, UniProt P24941); assay: In vitro inhibitory screening of CDK2 (CDK2 Assay kit, Kinase-Glo MAX); format: biochemical; conditions: CDK2/CyclinA2, 30 °C 45 min; mean of three experiments ± SD; read-out: CDK2 Protein Kinase (IC50 in µM)
T1 construct: purchased #79599
Description: To measure CDK2/CyclinA2 activity, the CDK2 Assay kit #79599 was used for screening and profiling applications, together with Kinase-Glo® MAX (Promega#V6071) as a detection reagent. […] Briefly, 25 μL of the master mixture containing 6 μL Kinase assay buffer + 1 μL ATP + 5 μL CDK substrate peptide + 13 μL distilled water were added to each well. Later, 5 µL of inhibitor buffer only or diluted compound were added to the blank or test inhibitor wells, respectively. Then, 20μL of Kinase assay buffer was added to blank wells. The reaction was started by the addition of 20 μL of CDK2/CyclinA2 enzyme to the wells of the test inhibitor. The final volume was 50 µL in all of the reactions. Incubation was at 30 °C for 45 min for all the enzymatic reactions. Finally, to each well, 50 μL of Kinase-Glo MAX reagent was added. The plate was incubated for 15 min at room temperature then, the luminescence signal was measured using a Bio Tek Synergy 2 microplate reader. Experiments were performed in triplicates.

WI38 normal cells = assay: In vitro cytotoxicity assessment (MTT), normal cells; format: cell-based; conditions: WI-38; normal human cell line WI38, MTT
Description: as §2, with “Then the cells were treated at different concentrations (2.5–10 μM) with 5-FU as a positive control or the synthesized compounds for 48h.” left out

MCF-7 cells [13] = assay: Cell cycle analysis (PI flow cytometry), MCF-7; format: cell-based, human; conditions: IC50 of 6e, 48 h
Description: as §3

p27 = assay: Western blot analysis for p27 in MCF-7 cells; format: cell-based, human; conditions: 6e at IC50 (1.67 μM), 48 h, relative to actin
Description: (§5) Whole-cell protein lysates were prepared according to a standard protocol using RIPA buffer (Cell Signaling, Danvers, MA, USA). Total protein concentrations were determined in the supernatant using the Bradford method. Equal amounts (20 µg) of protein samples were mixed and boiled with SDS Loading buffer for 10 min, allowed to cool on ice and then loaded into SDS-polyacrylamide gel and separated by Cleaver electrophoresis unit (Cleaver, UK), transferred onto polyvinylidene fluoride (PVDF) membranes (BioRad, USA) for 30 min using a Semi-dry Electroblotter (Biorad, USA) at 2.5 A and 25 V for 30 min. Membranes were blocked with 5% non-fat dry milk in TBS-T and incubated overnight with the primary antibody: anti-p21, anti-p27 antibody, or anti-β-actin antibody (1:1000; Cell Signaling Technology, Inc., Danvers, MA, USA), then incubated with secondary HRP-linked antibody (1:5000). Development was done using Pierce ECL2 chemiluminescent and chemifluorescent substrate (Perkin Elmer, Waltham, MA, USA). The chemiluminescent signals were captured using a CCD camera-based imager (Chemi Doc imager, Biorad, USA), and the bands’ intensities were then measured relative to actin by ImageLab (Biorad).

p21 = assay: Western blot analysis for p21 in MCF-7 cells; format: cell-based, human; conditions: 6e at IC50 (1.67 μM), 48 h, relative to actin
Description: as §5

Cc1[nH]c(=S)[nH]c(=O)c1S(=O)(=O)C1C(=O)NC(=O)NC1=O [Compound 3, 5-[(6-Methyl-4-Oxo-2-Thioxo-1,2,3,4-Tetrahydropyrimidin-5-Yl)sulfonyl]pyrimidine-2,4,6(1H,3H,5H)-Trione]
IC50 [1]: 13 ± 2 µM | IC50 [2]: 14.9 ± 2.89 µM | anticancer activity against the four cancer cell lines, in words [3]: low or no anticancer activity | melting point: 344 to 346 °C

Cc1[nH]c(=S)[nH]c(=O)c1S(=O)(=O)Cl [Compound 2, 6-Methyl-4-Oxo-2-Thioxo-1,2,3,4-Tetrahydropyrimidine-5-Sulfonyl Chloride]
IC50 [1]: 18 ± 1.04 µM | IC50 [4]: 17 ± 0.93 µM | IC50 [2]: 16.5 ± 1.4 µM | anticancer activity against the four cancer cell lines, in words [3]: low anticancer activity | melting point: 324 to 326 °C | IC50 [5]: 21.4 ± 2.51 µM

Cc1[nH]c(=S)[nH]c(=O)c1S(=O)(=O)Nc1cccc(Cl)c1Cl [Compound 6e, N-(2,3-Dichlorophenyl)-6-Methyl-4-Oxo-2-Thioxo-1,2,3,4-Tetrahydropyrimidine-5-Sulfonamide]
phase of cell growth arrest (HepG2 cells [6]): G2/M phase | IC50 [1]: 1.75 ± 0.4 µM | SI (selectivity index) HT-29 ([1]; IC50 in WI38 normal cells / IC50 in HT-29): 34.40 | % Early Apoptosis (HT-29 cells [7]): 1.61% | % Late Apoptosis (HT-29 cells [7]): 26.24% | % Necrosis (HT-29 cells [7]): 14.51% | % Total (HT-29 cells [7]): 42.36% | IC50 [4]: 2.02 ± 0.85 µM | SI (selectivity index) HepG2 ([4]; IC50 in WI38 normal cells / IC50 in HepG2): 29.80 | IC50 [2]: 1.67 ± 0.31 µM | SI (selectivity index) MCF-7 ([2]; IC50 in WI38 normal cells / IC50 in MCF-7): 36.05 | % Early Apoptosis (A-2780 cells [8]): 2.38% | % Late Apoptosis (A-2780 cells [8]): 22.02% | % Necrosis (A-2780 cells [8]): 9.41% | % Total (A-2780 cells [8]): 33.81% | % Early Apoptosis (HepG2 cells [9]): 0.84% | % Late Apoptosis (HepG2 cells [9]): 18.97% | % Necrosis (HepG2 cells [9]): 8.81% | % Total (HepG2 cells [9]): 28.62% | % Early Apoptosis (MCF-7 cells [10]): 3.82% | % Late Apoptosis (MCF-7 cells [10]): 23.71% | % Necrosis (MCF-7 cells [10]): 11.75% | % Total (MCF-7 cells [10]): 39.28% | melting point: 326 to 328 °C | IC50 [5]: 2.52 ± 0.47 µM | SI (selectivity index) A-2780 ([5]; IC50 in WI38 normal cells / IC50 in A-2780): 23.91 | phase of cell growth arrest (A-2780 cells [11]): G1/S phase | phase of cell growth arrest (HT-29 cells [12]): S phase | IC50 (CDK2/CyclinA2): 0.407 ± 0.021 µM | IC50 (WI38 normal cells): 60.2 ± 1.77 µM | phase of cell growth arrest (MCF-7 cells [13]): S phase | protein expression level of p27, increase compared to control (p27): ~2.2 fold | protein expression level of p21, increase compared to control (p21): about 2.6 fold

Cc1[nH]c(=S)[nH]c(=O)c1S(=O)(=O)C1C(=O)CC(C)(C)CC1=O [Compound 4, 5,5-Dimethyl-2-[(6-Methyl-4-Oxo-2-Thioxo-1,2,3,4-Tetrahydropyrimidin-5-Yl)sulfonyl]cyclohexane-1,3-Dione]
IC50 [1]: 14.2 ± 2.85 µM | IC50 [2]: 10.8 ± 1.6 µM | anticancer activity against the four cancer cell lines, in words [3]: low or no anticancer activity | melting point: 340 to 342 °C
